# Assay results taken from publication PMC10880909, “Correction: A high-throughput effector screen identifies a novel small molecule scaffold for inhibition of ten-eleven translocation dioxygenase 2” (RSC Medicinal Chemistry, 2024).
# Biological target: hTET2 (Homo sapiens, UniProt Q6N021)
# Experiment: MALDI-based inhibition assay of hTET2
# Conditions: for hTET2 inhibition, result in words: additional SAR / re-synthesis
Compound,IC50 [µM],"hTET2 inhibition, result in words"
CC(C)OS(=O)(=O)c1ccc(F)c2ncc(I)cc12 [Compound 5],> 200,–
CCCCCOS(=O)(=O)c1ccc(F)c2ncc(I)cc12 [Compound 6],> 200,–
NS(=O)(=O)c1ccc(F)c2ncc(I)cc12 [Compound 8],> 200,–
CNS(=O)(=O)c1ccc(F)c2ncc(I)cc12 [Compound 9],> 200,–
O=S(=O)(c1ccc(F)c2ncc(I)cc12)N1CCCC1 [Compound 10],> 200,–
O=S(=O)(Nc1ccccc1)c1ccc(F)c2ncc(I)cc12 [Compound 11],> 200,–
O=S(=O)(NCc1ccccc1)c1ccc(F)c2ncc(I)cc12 [Compound 13],> 200,–
O=S(=O)(NCCc1ccccc1)c1ccc(F)c2ncc(I)cc12 [Compound 14],> 200,–
O=S(=O)(Nc1cccc(O)c1)c1ccc(F)c2ncc(I)cc12 [Compound 16],> 200,–
O=S(=O)(O)c1ccc(O)c2ncccc12 [Compound 18],12.1 ± 4.2,–
O=C(O)c1ccc(F)c2ncccc12 [Compound 19],> 200,inactivity
"Oc1cc2c(cc1O)CNCC2 [Compound 21, tetrahydroisoquinoline-6,7-diol]",8.6,micromolar IC50 values
"O=C(O)c1ncccc1O [Compound 22, 3-hydroxypicolinic acid]",48.6,micromolar IC50 values
